We go through ten compounds from US9974832B2, “Therapeutic effects of bryostatins, bryologs, and other related substances on head trauma-induced memory impairment and brain injury” (Cognitive Research Enterprises, Inc., priority 2007, dated 2018).

The target in series [1] is PKC. Conditions: read-out: affinity for PKC, A-ring bryologs; cited from earlier work.
For series [2], the system named is murine leukemias and solid tumors. The conditions noted are these: cited from earlier work.
For series [3], the system named is PKC. Conditions: K562 cells; cited from earlier work.
Series [4] concerns cyclin dependent kinase 2 (Cdk2). The conditions noted are these: at 5 ng/ml; cited from earlier work.
The test system of series [5] is squamous cell carcinoma and melanoma. The conditions noted are these: used topically; cited from earlier work.
For series [6] the following is noted: (−)-enantiomer; cited from earlier work.
The subject of another series is NCI 60 cell line screen. The conditions noted are these: cited from earlier work.
Series [7] deals with head trauma-induced brain injury and memory impairment. Description: minimal traumatic brain injury in mice, Morris Water Maze. In kind it is in vivo. The conditions noted are these: treatment started one hour after head trauma. How it is done:
Minimal traumatic brain injury (TBI) was produced in mice by a concussive event using a 30 g mass. One hour post trauma, the mice received 20 or 30 μg bryostatin per kg doses by intraperitoneal injection. The injections were repeated twice weekly for a total of 5 treatments. The effects on learning and memory of bryostatin treatment in treated animals was tested in the Morris Water Maze.
The platform was removed and the animals were tested for how long they searched the correct quadrant versus the incorrect quadrants. In the passive avoidance procedure the animal remembers the distinctive environment in which a mild electric shock is delivered and avoids it on a second occasion.
Minimal traumatic brain injury (TBI) was produced in mice by a concussive event using a 30 g mass. One hour post trauma, the mice received 30 μg bryostatin per kg doses by intraperitoneal injection. The injections were repeated twice weekly for a total of 5 treatments. The escape latencies in a Morris Water Maze of mice treated with bryostatin after minimal TBI were compared to animals with minimal TBI, control animals receiving no TBI or bryostatin, and animals receiving bryostatin only.
Minimal traumatic brain injury (TBI) was produced in mice by a concussive event using a 30 g mass. One hour post trauma, the mice received 20 μg bryostatin per kg doses by intraperitoneal injection. […]

The subject of another series is tumor promotion. Conditions: cited from earlier work.
For series [8] the following is noted: in vivo; cited from earlier work.
The conditions of series [9]: compared with phorbol; cited from earlier work.
The target of another series is T1, PKCϵ (Homo sapiens, UniProt Q02156).
T1 sequence (Q02156 1-737): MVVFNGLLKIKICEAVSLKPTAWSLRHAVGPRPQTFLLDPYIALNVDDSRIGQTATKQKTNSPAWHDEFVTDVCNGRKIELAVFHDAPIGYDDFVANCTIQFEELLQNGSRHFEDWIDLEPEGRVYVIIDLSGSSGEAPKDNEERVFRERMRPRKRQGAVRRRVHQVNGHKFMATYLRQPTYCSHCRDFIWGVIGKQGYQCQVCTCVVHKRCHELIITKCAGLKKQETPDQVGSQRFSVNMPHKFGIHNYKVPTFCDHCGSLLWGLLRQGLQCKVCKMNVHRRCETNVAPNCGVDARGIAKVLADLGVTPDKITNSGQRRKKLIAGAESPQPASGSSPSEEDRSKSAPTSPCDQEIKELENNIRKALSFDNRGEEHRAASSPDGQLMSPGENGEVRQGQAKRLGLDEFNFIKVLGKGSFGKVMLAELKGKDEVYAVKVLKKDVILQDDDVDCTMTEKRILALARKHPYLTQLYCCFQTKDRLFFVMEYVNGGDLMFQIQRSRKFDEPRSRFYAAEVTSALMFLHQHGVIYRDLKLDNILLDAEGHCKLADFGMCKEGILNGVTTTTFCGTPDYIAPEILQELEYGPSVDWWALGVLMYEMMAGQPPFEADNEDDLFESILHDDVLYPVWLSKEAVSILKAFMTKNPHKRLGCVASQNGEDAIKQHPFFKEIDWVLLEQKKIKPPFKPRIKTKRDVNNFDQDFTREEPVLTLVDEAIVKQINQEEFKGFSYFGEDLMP
The conditions noted are these: cited from earlier work.

As to `CCCCCCCC(=O)OC1C(=CC(=O)OC)CC2CC(CO)OC(=O)CC(O)CCOC(c3ccccc3)CC3CCOC(C=CC(C)(C)C1(O)O2)O3` (stereo not drawn) [bryolog 4], the Ki at PKC [1] was 2.3 nM.

Consider `CCCCCCCC(=O)OC1C(=CC(=O)OC)CC2CC(CO)OC(=O)CC(O)CCOC(C(C)(C)C)CC3CCOC(C=CC(C)(C)C1(O)O2)O3` (stereo not drawn) [bryolog 3], for which, on PKC [1], the Ki was 6.5 nM.

Consider `C=C(C)[C@]12C[C@@H](COC(=O)c3ccccc3)[C@@]34OC5(O[C@@H]1[C@@H]3C1O[C@]1(CO)[C@@H](O)[C@@]1(O)[C@H]4[C@@H](C(C)CCCCCC[C@@H]5O)C(C)[C@@H]1OC(=O)c1ccccc1)O2` (stereo partly drawn) [Gnidimacrin], for which the “concentrations with potent antitumor activity” value in [2] is 0.1 to 1 nM. Also, in the series with PKC [3], the “concentration at which it acts as a PKC activator” value is given as “≈ 3 nM”. Further, the “inhibition of Cdk2” value in [4] is 100%.

For `C/C=C(/C)C(=O)O[C@H]1C(C)=C[C@]23C(=O)[C@@H](C=C(CO)[C@@H](O)[C@]12O)[C@H]1[C@@H](C[C@H]3C)C1(C)C` [Ingenol-3-angelate], in series [5], the antitumor activity entry is given as “possesses antitumor activity”.

As for `CCCCCCCC(=O)OC1C(=CC(=O)OC)CC2CC(CO)OC(=O)CC(O)CCOC(CCCc3ccc(Br)cc3)CC3CCOC(C=CC(C)(C)C1(O)O2)O3` (stereo not drawn) [bryolog 5], the Ki at PKC [1] was 1.9 nM.

Consider `CCCCCCCCc1ccc2c3c(c[nH]c13)C[C@@H](CO)NC(=O)[C@H](C(C)C)N2C` [Octylindolactam V], for which the metabolic stability result in series [6] is recorded as “greater metabolic stability”.

In the case of `CC1=CC[C@H](C)C(C)(C)[C@@H]1/C=C/C(C)=C/CC[C@@]1(CO)[C@H](CCCO)/C(=C(/C)C=O)CC[C@]1(C)O` [Iripallidal], in the series with NCI 60 cell line screen, the “GI50 (concentration required to inhibit growth by 50%)” value is reported as “micromolar to nanomolar range”.

As for `CCCC=CC=CC(=O)OC1C(=CC(=O)OC)CC2CC(C(C)O)OC(=O)CC(O)CC3CC(OC(C)=O)C(C)(C)C(O)(CC4CC(=CC(=O)OC)CC(C=CC(C)(C)C1(O)O2)O4)O3` (stereo not drawn) [Bryostatin 1, bryostatin-1], the “therapeutic effect on brain injury and memory impairment induced with head trauma” value in [7] was “therapeutic value against brain injury and memory impairment”. Also, the tumor promotion activity entry in the series on tumor promotion was “devoid of tumor promotion activity”. In addition, in series [8], the “main adverse reaction in humans” value is listed as “myalgia” and the “tolerability of doses in humans” value was “well tolerated in humans”.

As to Ingenol, in series [9], the toxicity entry is listed as “much less toxicity”.

For the compound `CCCCCC1CC1CC1CC1CCCCCCCC(=O)O` (stereo not drawn) [DCP-LA, 2-[(2-pentylcyclopropyl)methyl]cyclopropaneoctanoic acid], the “concentration of maximal effect” value on PKCϵ was 100 nM.
